{"source": "BindingDB's records for doi:10.1021/acs.jmedchem.9b00575", "about": "(Glaxosmithkline, 2019)", "target": "Nucleotide-binding oligomerization domain-containing protein 2 (Homo sapiens, UniProt Q9HC29)", "sequence (Q9HC29 whole entry, the tested form may be a part)": "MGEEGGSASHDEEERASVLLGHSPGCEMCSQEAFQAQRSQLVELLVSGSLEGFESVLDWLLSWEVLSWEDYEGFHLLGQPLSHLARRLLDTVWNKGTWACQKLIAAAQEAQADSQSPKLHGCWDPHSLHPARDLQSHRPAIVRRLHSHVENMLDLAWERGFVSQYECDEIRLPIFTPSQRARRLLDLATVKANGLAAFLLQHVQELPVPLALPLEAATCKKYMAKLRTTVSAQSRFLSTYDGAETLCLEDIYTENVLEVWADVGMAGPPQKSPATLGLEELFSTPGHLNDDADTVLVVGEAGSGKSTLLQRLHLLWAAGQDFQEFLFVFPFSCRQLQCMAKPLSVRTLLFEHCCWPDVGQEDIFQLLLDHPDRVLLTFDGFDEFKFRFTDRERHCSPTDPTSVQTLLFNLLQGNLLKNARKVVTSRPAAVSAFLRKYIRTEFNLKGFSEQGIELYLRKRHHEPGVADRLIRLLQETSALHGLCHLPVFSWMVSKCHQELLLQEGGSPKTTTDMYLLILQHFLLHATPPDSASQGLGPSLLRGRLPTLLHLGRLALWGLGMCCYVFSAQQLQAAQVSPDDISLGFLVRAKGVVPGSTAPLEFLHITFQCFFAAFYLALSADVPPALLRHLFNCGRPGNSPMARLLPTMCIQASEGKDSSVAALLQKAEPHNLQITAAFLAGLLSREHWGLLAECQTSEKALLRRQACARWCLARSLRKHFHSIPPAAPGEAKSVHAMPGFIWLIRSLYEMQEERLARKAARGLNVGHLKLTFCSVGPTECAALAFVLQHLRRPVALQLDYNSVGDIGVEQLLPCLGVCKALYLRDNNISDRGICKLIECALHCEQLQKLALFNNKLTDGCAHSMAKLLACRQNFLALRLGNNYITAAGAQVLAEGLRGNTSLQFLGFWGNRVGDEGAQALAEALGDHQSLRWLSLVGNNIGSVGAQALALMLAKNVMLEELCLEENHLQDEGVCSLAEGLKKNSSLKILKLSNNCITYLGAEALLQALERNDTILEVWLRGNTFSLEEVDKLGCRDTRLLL", "experiment": "Inhibition of NOD2 in human monocytes assessed as reduction in MDP-induced TNFalpha production preincubated for 30 mins followed by MDP-stimulation and measured after 6 hrs by immunoassay"}
{"smiles": "CC(C)(C)S(=O)(=O)c1cc2c(Nc3ccc4scnc4c3)ncnc2cc1OCCO", "values": [{"measurement": "IC50", "value": 13, "unit": "nM"}]}
